{"source": "ChEMBL document CHEMBL1671858", "about": "“Coprevalence of plasmid-mediated quinolone resistance determinants QepA, Qnr, and AAC(6')-Ib-cr among 16S rRNA methylase RmtB-producing Escherichia coli isolates from pigs” (2008)", "type_in_all_cases": "functional", "key": {"Escherichia coli [1]": {"system": "Escherichia coli", "test": "Antimicrobial activity against Escherichia coli isolate CQ19 PFGE type S harboring qepA gene by agar dilution method"}, "Escherichia coli [2]": {"system": "Escherichia coli", "test": "Antimicrobial activity against Escherichia coli isolate CQ4 transconjugant harboring 16S rRNA methylase RmtB and qepA by agar dilution method relative to recipient strain"}, "Escherichia coli [3]": {"system": "Escherichia coli", "test": "Antimicrobial activity against Escherichia coli isolate CQ26 transconjugant harboring 16S rRNA methylase RmtB and qepA by agar dilution method relative to recipient strain"}, "Escherichia coli [4]": {"system": "Escherichia coli", "test": "Antimicrobial activity against Escherichia coli isolate GZ13 transconjugant harboring 16S rRNA methylase RmtB and qepA by agar dilution method relative to recipient strain"}, "Escherichia coli [5]": {"system": "Escherichia coli", "test": "Antimicrobial activity against Escherichia coli isolate GZ4 PFGE type A2 harboring qepA gene by agar dilution method"}, "Escherichia coli [6]": {"system": "Escherichia coli", "test": "Antimicrobial activity against Escherichia coli isolate CQ12 PFGE type Q harboring qepA gene by agar dilution method"}, "Escherichia coli [7]": {"system": "Escherichia coli", "test": "Antimicrobial activity against Escherichia coli isolate CQ18 transconjugant harboring 16S rRNA methylase RmtB and qepA by agar dilution method relative to recipient strain"}, "Escherichia coli [8]": {"system": "Escherichia coli", "test": "Antimicrobial activity against Escherichia coli isolate CQ22 PFGE type P harboring qepA gene by agar dilution method"}, "Escherichia coli [9]": {"system": "Escherichia coli", "test": "Antimicrobial activity against Escherichia coli isolate GZ13 PFGE type F harboring qepA gene by agar dilution method"}, "Escherichia coli [10]": {"system": "Escherichia coli", "test": "Antimicrobial activity against Escherichia coli isolate CQ19 transconjugant harboring 16S rRNA methylase RmtB and qepA, aac(6')-Ib-cr gene by agar dilution method relative to recipient strain"}, "Escherichia coli [11]": {"system": "Escherichia coli", "test": "Antimicrobial activity against Escherichia coli isolate GZ10 transconjugant harboring 16S rRNA methylase RmtB and qepA, aac(6')-Ib-cr gene by agar dilution method relative to recipient strain"}, "Escherichia coli [12]": {"system": "Escherichia coli", "test": "Antimicrobial activity against Escherichia coli isolate GZ4 transconjugant harboring 16S rRNA methylase RmtB and qepA by agar dilution method relative to recipient strain"}, "Escherichia coli [13]": {"system": "Escherichia coli", "test": "Antimicrobial activity against Escherichia coli isolate GZ6 PFGE type B harboring qepA gene by agar dilution method"}, "Escherichia coli [14]": {"system": "Escherichia coli", "test": "Antimicrobial activity against Escherichia coli isolate GZ7 transconjugant harboring 16S rRNA methylase RmtB and qepA and qnrS1 by agar dilution method relative to recipient strain"}, "Escherichia coli [15]": {"system": "Escherichia coli", "test": "Antimicrobial activity against Escherichia coli isolate GZ1 transconjugant harboring 16S rRNA methylase RmtB and qnrS1 by agar dilution method relative to recipient strain"}, "Escherichia coli [16]": {"system": "Escherichia coli", "test": "Antimicrobial activity against Escherichia coli isolate CQ1 PFGE type U harboring qepA gene by agar dilution method"}, "Escherichia coli [17]": {"system": "Escherichia coli", "test": "Antimicrobial activity against Escherichia coli isolate GZ12 PFGE type F harboring qepA gene by agar dilution method"}, "Escherichia coli [18]": {"system": "Escherichia coli", "test": "Antimicrobial activity against Escherichia coli isolate CQ10 PFGE type L harboring qepA gene by agar dilution method"}, "Escherichia coli [19]": {"system": "Escherichia coli", "test": "Antimicrobial activity against Escherichia coli isolate CQ7 transconjugant harboring 16S rRNA methylase RmtB and qepA, qnrS2, aac(6')-Ib-cr gene by agar dilution method relative to recipient strain"}, "Escherichia coli [20]": {"system": "Escherichia coli", "test": "Antimicrobial activity against Escherichia coli isolate GZ1 PFGE type O harboring qepA gene by agar dilution method"}, "Escherichia coli [21]": {"system": "Escherichia coli", "test": "Antimicrobial activity against Escherichia coli isolate CQ2 PFGE type I2 harboring qepA gene by agar dilution method"}, "Escherichia coli [22]": {"system": "Escherichia coli", "test": "Antimicrobial activity against Escherichia coli isolate CQ5 PFGE type I2 harboring qepA gene by agar dilution method"}, "Escherichia coli [23]": {"system": "Escherichia coli", "test": "Antimicrobial activity against Escherichia coli isolate GZ11 transconjugant harboring 16S rRNA methylase RmtB and qepA by agar dilution method relative to recipient strain"}, "Escherichia coli [24]": {"system": "Escherichia coli", "test": "Antimicrobial activity against Escherichia coli isolate CQ15 transconjugant harboring 16S rRNA methylase RmtB and qepA by agar dilution method relative to recipient strain"}, "Escherichia coli [25]": {"system": "Escherichia coli", "test": "Antimicrobial activity against Escherichia coli isolate GZ7 PFGE type N harboring qepA gene by agar dilution method"}, "Escherichia coli [26]": {"system": "Escherichia coli", "test": "Antimicrobial activity against Escherichia coli isolate GZ10 PFGE type R harboring qepA gene by agar dilution method"}, "Escherichia coli [27]": {"system": "Escherichia coli", "test": "Antimicrobial activity against Escherichia coli isolate CQ7 PFGE type Q harboring qepA gene by agar dilution method"}, "Escherichia coli [28]": {"system": "Escherichia coli", "test": "Antimicrobial activity against Escherichia coli isolate GZ9 PFGE type D harboring qepA gene by agar dilution method"}, "Escherichia coli [29]": {"system": "Escherichia coli", "test": "Antimicrobial activity against Escherichia coli isolate CQ6 PFGE type Q harboring qepA gene by agar dilution method"}, "Escherichia coli [30]": {"system": "Escherichia coli", "test": "Antimicrobial activity against Escherichia coli isolate CQ12 transconjugant harboring 16S rRNA methylase RmtB and qepA, qnrS2, aac(6')-Ib-cr gene by agar dilution method relative to recipient strain"}, "Escherichia coli [31]": {"system": "Escherichia coli", "test": "Antimicrobial activity against Escherichia coli isolate GZ15 PFGE type G harboring qepA gene by agar dilution method"}, "Escherichia coli [32]": {"system": "Escherichia coli", "test": "Antimicrobial activity against Escherichia coli isolate GZ14 PFGE type F harboring qepA gene by agar dilution method"}, "Escherichia coli [33]": {"system": "Escherichia coli", "test": "Antimicrobial activity against Escherichia coli isolate CQ6 transconjugant harboring 16S rRNA methylase RmtB and qepA, qnrS2, aac(6')-Ib-cr gene by agar dilution method relative to recipient strain"}, "Escherichia coli [34]": {"system": "Escherichia coli", "test": "Antimicrobial activity against Escherichia coli isolate GZ6 transconjugant harboring 16S rRNA methylase RmtB and qepA by agar dilution method relative to recipient strain"}, "Escherichia coli [35]": {"system": "Escherichia coli", "test": "Antimicrobial activity against Escherichia coli isolate GZ9 transconjugant harboring 16S rRNA methylase RmtB and qepA by agar dilution method relative to recipient strain"}, "Escherichia coli [36]": {"system": "Escherichia coli", "test": "Antimicrobial activity against Escherichia coli isolate CQ1 transconjugant harboring 16S rRNA methylase RmtB and qnrB6 by agar dilution method relative to recipient strain"}, "Escherichia coli [37]": {"system": "Escherichia coli", "test": "Antimicrobial activity against Escherichia coli isolate CQ22 transconjugant harboring 16S rRNA methylase RmtB and qnrS1 by agar dilution method relative to recipient strain"}, "Escherichia coli [38]": {"system": "Escherichia coli", "test": "Antimicrobial activity against Escherichia coli isolate CQ14 transconjugant harboring 16S rRNA methylase RmtB and qepA by agar dilution method relative to recipient strain"}, "Escherichia coli [39]": {"system": "Escherichia coli", "test": "Antimicrobial activity against Escherichia coli isolate CQ15 PFGE type I1 harboring qepA gene by agar dilution method"}, "Escherichia coli [40]": {"system": "Escherichia coli", "test": "Antimicrobial activity against Escherichia coli isolate CQ16 PFGE type Q harboring qepA gene by agar dilution method"}, "Escherichia coli [41]": {"system": "Escherichia coli", "test": "Antimicrobial activity against Escherichia coli isolate GZ8 transconjugant harboring 16S rRNA methylase RmtB and qepA by agar dilution method relative to recipient strain"}, "Escherichia coli [42]": {"system": "Escherichia coli", "test": "Antimicrobial activity against Escherichia coli isolate GZ11 PFGE type E harboring qepA gene by agar dilution method"}, "Escherichia coli [43]": {"system": "Escherichia coli", "test": "Antimicrobial activity against Escherichia coli isolate CQ10 transconjugant harboring 16S rRNA methylase RmtB and qepA by agar dilution method relative to recipient strain"}, "Escherichia coli [44]": {"system": "Escherichia coli", "test": "Antimicrobial activity against Escherichia coli isolate GZ2 transconjugant harboring 16S rRNA methylase RmtB and qnrS1 by agar dilution method relative to recipient strain"}, "Escherichia coli [45]": {"system": "Escherichia coli", "test": "Antimicrobial activity against Escherichia coli isolate CQ26 PFGE type K harboring qepA gene by agar dilution method"}, "Escherichia coli [46]": {"system": "Escherichia coli", "test": "Antimicrobial activity against Escherichia coli isolate CQ18 PFGE type I2 harboring qepA gene by agar dilution method"}, "Escherichia coli [47]": {"system": "Escherichia coli", "test": "Antimicrobial activity against Escherichia coli isolate CQ4 PFGE type J1 harboring qepA gene by agar dilution method"}}}
{"smiles": "CCN1CCN(c2cc3c(cc2F)c(=O)c(C(=O)O)cn3C2CC2)CC1", "note": "[ENROFLOXACIN]", "values": [{"measurement": "MIC", "setting": "Escherichia coli [1]", "result": 2, "unit": "µg/mL"}, {"measurement": "fold change (FC)", "setting": "Escherichia coli [2]", "result": 1}, {"measurement": "fold change (FC)", "setting": "Escherichia coli [3]", "result": 2}, {"measurement": "fold change (FC)", "setting": "Escherichia coli [4]", "result": 2}, {"measurement": "MIC", "setting": "Escherichia coli [5]", "result": 32, "unit": "µg/mL"}, {"measurement": "MIC", "setting": "Escherichia coli [6]", "result": 2, "unit": "µg/mL"}, {"measurement": "fold change (FC)", "setting": "Escherichia coli [7]", "result": 1}, {"measurement": "MIC", "setting": "Escherichia coli [8]", "result": 4, "unit": "µg/mL"}, {"measurement": "MIC", "setting": "Escherichia coli [9]", "result": 8, "unit": "µg/mL"}, {"measurement": "fold change (FC)", "setting": "Escherichia coli [10]", "result": 4}, {"measurement": "fold change (FC)", "setting": "Escherichia coli [11]", "result": 4}, {"measurement": "fold change (FC)", "setting": "Escherichia coli [12]", "result": 4}, {"measurement": "MIC", "setting": "Escherichia coli [13]", "result": 16, "unit": "µg/mL"}, {"measurement": "fold change (FC)", "setting": "Escherichia coli [14]", "result": 1}, {"measurement": "fold change (FC)", "setting": "Escherichia coli [15]", "result": 32}, {"measurement": "MIC", "setting": "Escherichia coli [16]", "result": 0.25, "unit": "µg/mL"}, {"measurement": "MIC", "setting": "Escherichia coli [17]", "result": 16, "unit": "µg/mL"}, {"measurement": "MIC", "setting": "Escherichia coli [18]", "result": 0.25, "unit": "µg/mL"}, {"measurement": "fold change (FC)", "setting": "Escherichia coli [19]", "result": 2}, {"measurement": "MIC", "setting": "Escherichia coli [20]", "result": 4, "unit": "µg/mL"}, {"measurement": "MIC", "setting": "Escherichia coli [21]", "result": 2, "unit": "µg/mL"}, {"measurement": "MIC", "setting": "Escherichia coli [22]", "result": 4, "unit": "µg/mL"}, {"measurement": "fold change (FC)", "setting": "Escherichia coli [23]", "result": 4}, {"measurement": "fold change (FC)", "setting": "Escherichia coli [24]", "result": 16}, {"measurement": "MIC", "setting": "Escherichia coli [25]", "result": 32, "unit": "µg/mL"}, {"measurement": "MIC", "setting": "Escherichia coli [26]", "result": 16, "unit": "µg/mL"}, {"measurement": "MIC", "setting": "Escherichia coli [27]", "result": 2, "unit": "µg/mL"}, {"measurement": "MIC", "setting": "Escherichia coli [28]", "result": 32, "unit": "µg/mL"}, {"measurement": "MIC", "setting": "Escherichia coli [29]", "result": 2, "unit": "µg/mL"}, {"measurement": "fold change (FC)", "setting": "Escherichia coli [30]", "result": 4}, {"measurement": "MIC", "setting": "Escherichia coli [31]", "result": 8, "unit": "µg/mL"}, {"measurement": "MIC", "setting": "Escherichia coli [32]", "result": 16, "unit": "µg/mL"}, {"measurement": "fold change (FC)", "setting": "Escherichia coli [33]", "result": 2}, {"measurement": "fold change (FC)", "setting": "Escherichia coli [34]", "result": 2}, {"measurement": "fold change (FC)", "setting": "Escherichia coli [35]", "result": 2}, {"measurement": "fold change (FC)", "setting": "Escherichia coli [36]", "result": 1}, {"measurement": "fold change (FC)", "setting": "Escherichia coli [37]", "result": 2}, {"measurement": "fold change (FC)", "setting": "Escherichia coli [38]", "result": 2}, {"measurement": "MIC", "setting": "Escherichia coli [39]", "result": 2, "unit": "µg/mL"}, {"measurement": "MIC", "setting": "Escherichia coli [40]", "result": 2, "unit": "µg/mL"}, {"measurement": "fold change (FC)", "setting": "Escherichia coli [41]", "result": 16}, {"measurement": "MIC", "setting": "Escherichia coli [42]", "result": 128, "unit": "µg/mL"}, {"measurement": "fold change (FC)", "setting": "Escherichia coli [43]", "result": 2}, {"measurement": "fold change (FC)", "setting": "Escherichia coli [44]", "result": 2}, {"measurement": "MIC", "setting": "Escherichia coli [45]", "result": 0.5, "unit": "µg/mL"}, {"measurement": "MIC", "setting": "Escherichia coli [46]", "result": 2, "unit": "µg/mL"}, {"measurement": "MIC", "setting": "Escherichia coli [47]", "result": 0.03, "unit": "µg/mL"}]}
